Test results published in article PMC10374545, “A small molecule inhibitor of PTP1B and PTPN2 enhances T cell anti-tumor immunity” (Nature Communications, 2023).
Several values for one entry are separate records, joined by “and”; a condition that tells them apart may be missing. Equal values may be shown once.

Columns and labels:
Format in all cases: in vivo, mouse
spleen = test: Spleen weight, splenocytes and splenic CD8+ EM T cell signaling in AT3-OVA tumor-bearing mice
Experimental: Single-cell suspensions from spleens and lymph nodes were obtained as described previously. For the detection of intracellular cytokines and granzyme B, T cells were fixed and permeabilized with the BD Cytofix/Cytoperm kit according to the manufacturer’s instructions. Briefly, T cells were first surface stained with fluorophore-conjugated antibodies and then fixed followed by permeabilization on ice for 20 min. Fixed and permeabilized cells were stained for IFN-γ, TNF, and granzyme B for 45 min at room temperature. For the detection of intracellular FoxP3 the Foxp3/Transcription Factor Staining Buffer Set (eBioscience) was used according to the manufacturer’s instructions. Briefly, cells were fixed and permeabilized for 1 h on ice followed by intracellular staining at room temperature for 45 min. For the detection of serum cytokines, the BD CBA Mouse Inflammation Kit™ was used according to the manufacturers’ instructions.
Cells (1 × 10^6/10 µl) were stained with the specified antibodies on ice for 30 min in D-PBS supplemented with 2% FBS in the dark and analyzed using a Fortessa or Symphony A3 (BD Biosciences). Data was acquired using BD FACS DIVA Software v8.0.1 and analyzed using FlowJo10 (Tree Star Inc.) software. Lymphocytes were gated for eYFP^+ cells to discriminate between PTPN2 sufficient and PTPN2 negative cells after poly(I:C)-induced PTPN2-deletion in Mx1-Cre;Ptpn2^fl/fl mice. For cell quantification, known numbers of Flow-Count Fluorospheres (Beckman Coulter) were added to samples before analysis. Dead cells were excluded with propidium iodide (1 μg/ml; Sigma-Aldrich). Paraformaldehyde fixed dead cells were excluded with the LIVE/DEAD™ Fixable Near-IR Dead Cell Stain Kit (Thermo Fisher Scientific).
OVA mammary tumor cells were injected into the fourth inguinal mammary fat pads of 8 week- […]
n=8) or saline (n=8) on days (d) 6, 8, 10, 12, 14, 16, 18 and 21 after tumor cell implantation. […]
CD44hiCD62Llo CD8+ and CD4+ effector/memory (EM) T cells, CD4+CD25+FoxP3+ regulatory T cells (Tregs) and granulocytic and monocytic […]
CD8+ and CD4+ EM T cells were analysed by flow cytometry. In (a-d) representative results (means ± SEM) from at least two independent experiments are shown. In (d) significances were determined using a 1-way ANOVA Test.

AT3 mammary tumors = test: Tumor-infiltrating lymphocytes in AT3 tumors; set-up: CD4 EM, individual mice / CD8 EM, individual mice / GRZMB, individual mice / B cells, individual mice / NK cells, individual mice / Tregs, individual mice / MDSCs, individual mice: unit not given here
Experimental: Tumor-bearing mice were sacrificed and tumors were excised and digested at 37 °C for 30 min using a cocktail of 1 mg/ml collagenase type IV (Worthington Biochemicals) and 0.02 mg/ml DNase I (Sigma-Aldrich) in DMEM supplemented with 2% (v/v) FBS. Cells were passed through a 70 μm cell strainer (BD Biosciences) twice and processed for flow cytometry. For assessing T cell activation, cells were surface stained with fluorophore-conjugated antibodies to CD62L, CD44, PD-1, and TIM-3. For the assessment of NK cells, B cells, myeloid-derived suppressor cells (MDSCs), dendritic cells (DCs), and tumor-associated macrophages, cells were surface stained with fluorophore-conjugated antibodies to NK1.1, TCRβ, CD19, CD11b, CD11c, F4/80, Ly6C and Ly6G. For the detection of intracellular cytokines TNF and IFNγ, T cells were stimulated with PMA (20 ng/ml; Sigma-Aldrich) and ionomycin (1 μg/ml; Sigma-Aldrich) in the presence of GolgiPlug™ and GolgiStop™ (BD Biosciences) for 4 h at 37 °C in complete T cell medium. For the intracellular detection of granzyme B, cells were processed untreated without the addition of BD GolgiPlug™ and BD GolgiStop™.

AT3-OVA mammary tumors = test: AT3-OVA tumor growth in Lck-Cre;Ptpn2fl/fl mice; set-up: key to Tumour growth: tumour size in mm^2 (two-dimensional caliper measurement); conditions: for Tumour growth: AT3-OVA tumours, individual mice (Figure 7A)
Experimental: Male or female mice were injected subcutaneously with 5 × 10^5 MC38 tumor cells resuspended in 100 μl D-PBS into the flank. Alternatively, female mice were injected orthotopically with 5 × 10^5 AT3 or AT3-OVA or PTPN2-deleted AT3 or AT3-OVA tumor cells resuspended in 20 μl D-PBS into the fourth mammary fat pad. Tumor sizes were measured in two dimensions (mm^2) using electronic callipers two to three times per week as soon as tumors were palpable (20–25 mm^2).

[1] = splenic CD8+ EM T cells, 10 mg/kg i.v., Fig. 3E raw data, listed as CMP-182, 10 mg/kg
[2] = AT-3 tumours, Figure 4E, listed as CMP-182
[3] = AT-3 tumours, Figure 4F, listed as CMP-182

SMILES: CC(C)(O)CCOc1ccc2cc(O)c(N3CC(=O)NS3(=O)=O)c(F)c2c1 [Compound 182, 5-(1-Fluoro-3-hydroxy-7-(3-hydroxy-3-methylbutoxy)naphthalen-2-yl)−1,2,5-thiadiazolidin-3-one 1,1-dioxide]
- basal p-SFK and p-STAT-5 in splenic CD8+ effector/memory T cells (spleen; 10 mg/kg i.v.): enhanced
- spleen weights and splenic T cell and myeloid numbers (spleen; AT3-OVA tumor-bearing mice, 10 mg/kg i.v.): unaltered
- B cells Spleen (median) (spleen; Figure 3C, column B, n=8): 1202070, n=8
- Nk cells Spleen (median) (spleen; Figure 3C, column B, n=8): 1062533, n=8
- pSFK CD8 EM (median) (spleen; Figure 3E, column B, n=8): 356.5, n=8
- pSTAT5 CD8 EM (median) (spleen; Figure 3E, column B, n=8): 960.5, n=8
- p-SFK MFIs, single mice (spleen; [1]): 362 and 359 and 441 and 347 and 414 and 282 and 298 and 354
- p-STAT-5 MFIs, single mice (spleen; [1]): 1043 and 825 and 973 and 931 and 1046 and 926 and 948 and 1137
- TILs in AT3 tumors (AT3 mammary tumors; 10 mg/kg i.v.): increased TILs
- CD4 EM, individual mice (AT3 mammary tumors; [2]): 3726.1 and 1503.32 and 2365.26 and 3607.46 and 1559.09
- CD8 EM, individual mice (AT3 mammary tumors; [2]): 36747.8 and 11580.8 and 23763.5 and 22145.6 and 15367.2
- GRZMB, individual mice (AT3 mammary tumors; [2]): 38 and 29.8 and 32 and 36.3 and 27.7
- PD-1 TIM-3, individual mice (AT3 mammary tumors; [2]): 17.7 and 30.7 and 29.6 and 26.7 and 38
- B cells, individual mice (AT3 mammary tumors; [3]): 10773 and 2554.29 and 3750.15 and 13582.9 and 3202.26
- MDSCs, individual mice (AT3 mammary tumors; [3]): 17269.7 and 11457.4 and 14297.5 and 10691.6 and 5468.87
- NK cells, individual mice (AT3 mammary tumors; [3]): 10197.4 and 4505.05 and 4177.56 and 6667.39 and 3703.02
- Tregs, individual mice (AT3 mammary tumors; [3]): 857.48 and 533.579 and 888.636 and 1675.89 and 531.261
- growth of AT3-OVA tumors in Lck-Cre;Ptpn2fl/fl mice (AT3-OVA mammary tumors; 10 mg/kg i.v., effects modest): additionally repressed the growth
- Tumour growth (AT3-OVA mammary tumors; Lck-Cre;Ptpn2fl/fl mice n=6, day 7 post injection, listed as CMP-182): 39.6 and 38.4 and 28.91 and 24.91 and 14.4 and 25
- Tumour growth (AT3-OVA mammary tumors; Lck-Cre;Ptpn2fl/fl mice n=6, day 9 post injection, listed as CMP-182): 40.2 and 33 and 27.36 and 24.44 and 20.64 and 28.6
- Tumour growth (AT3-OVA mammary tumors; Lck-Cre;Ptpn2fl/fl mice n=6, day 11 post injection, listed as CMP-182): 40.8 and 26.46 and 22.5 and 19.89 and 25.38 and 17.64
- Tumour growth (AT3-OVA mammary tumors; Lck-Cre;Ptpn2fl/fl mice n=6, day 13 post injection, listed as CMP-182): 44.8 and 30.25 and 16 and 20.25 and 29.64 and 25.38
- Tumour growth (AT3-OVA mammary tumors; Lck-Cre;Ptpn2fl/fl mice n=6, day 16 post injection, listed as CMP-182): 44.16 and 40.92 and 16 and 18.9 and 20.68 and 31.11
- Tumour growth (AT3-OVA mammary tumors; Lck-Cre;Ptpn2fl/fl mice n=6, day 19 post injection, listed as CMP-182): 38.94 and 25 and 15.2 and 25.92 and 33.48 and 38.34
- Tumour growth (AT3-OVA mammary tumors; Lck-Cre;Ptpn2fl/fl mice n=6, day 22 post injection, listed as CMP-182): 38.94 and 28.08 and 25.08 and 22.36 and 21 and 35
- Tumour weights (AT3-OVA mammary tumors; Lck-Cre;Ptpn2fl/fl mice n=6, individual mice (Figure 7B), listed as CMP-182, in mg (unit assumed)): 123 and 76 and 120 and 82 and 67 and 156
